{
  "source": "paper PMC4318582",
  "about": "“Chemotherapy of Second Stage Human African Trypanosomiasis: Comparison between the Parenteral Diamidine DB829 and Its Oral Prodrug DB868 in Vervet Monkeys” (PLoS Neglected Tropical Diseases, 2015)",
  "key": {"[1]": {"system": "T. b. rhodesiense KETRI 2537", "experiment": "Efficacy in KETRI vervet monkey model of second stage HAT", "format": "in vivo", "excerpt": "The current study used the KETRI vervet monkey model of HAT, a model developed over 30 years ago through the experimental infection of vervet monkeys with T. b. rhodesiense. […] Trypanosomes were identified in peripheral blood first and cerebrospinal fluid (CSF) second, allowing the disease to be classified into an early (haemo-lymphatic) and a late (central nervous system [CNS]) stage, similar to the human disease. […] Monkey trypanosomal infections have been determined to be invariably fatal without therapeutic intervention, a characteristic also widely accepted as true for human sleeping sickness.\nParasitaemia and CSF parasitosis were monitored using established techniques for blood trypanosomes and CSF trypanosomes, respectively.\nDue to a regulated freeze on acquisitions of new non-human primates, only six monkeys were available for the IM DB829 study. These animals were divided into three treatment groups, each consisting of one male and one female, to compare dose-responsiveness between consecutive- and alternate-day dosing. Monkeys were treated with 2.5 or 5 mg/kg/day for 5 consecutive days or with 5 mg/kg/day on alternating days for a total of 5 doses (Table 1).\nTwelve additional monkeys were available for the oral DB868 efficacy study. These animals were, before infection, divided into three groups, each consisting of two males and two females. DB868 was administered orally to each group at 3, 10 or 20 mg/kg/day for 10 consecutive days (Table 2).\nParasitaemia post-infection was monitored daily, using ear-prick capillary blood, through the completion of DB868 and DB829 treatment. […] At 300 days post-LDD, monkeys were considered cured if they remained normal clinically and parasite-free in the blood and CSF. Pharmacokinetic outcomes were monitored for a minimum of 60 days post-LDD as described previously. […] Monkeys that relapsed, characterized by trypanosome recrudescence in the blood or CSF, were rescue-treated with melarsoprol."}, "[2]": {"experiment": "Plasma pharmacokinetics in infected vervet monkeys (HPLC-MS/MS)", "format": "in vivo, vervet monkey", "settings": "for AUClast: last measurable concentration varied (112–490 days)", "excerpt": "Parasitaemia post-infection was monitored daily, using ear-prick capillary blood, through the completion of DB868 and DB829 treatment. Following the last drug dose (LDD), blood and CSF samples were examined for trypanosomes at 1, 4, 7, and 14 days to determine the end of treatment (EoT) response; monkeys which were positive for trypanosomes in either blood or CSF at the end of this 14-day period were classified as treatment failures/not cured while those that were free of trypanosomes were classified as provisionally cured. After the 14-day EoT evaluations, parasitaemia examinations were continued twice weekly to ≥ 300 days post-LDD as described previously. Additionally, physical examinations and haematological assessments were carried out once weekly up to 28 days post-LDD, once every two weeks between 28 and 100 days post-LDD, and monthly thereafter until the end of the study as described previously. At 300 days post-LDD, monkeys were considered cured if they remained normal clinically and parasite-free in the blood and CSF. Pharmacokinetic outcomes were monitored for a minimum of 60 days post-LDD as described previously. To facilitate the collection of blood and CSF for these assessments, the monkeys were anaesthetised with an IM injection of ketamine HCl (10–15 mg/kg) and diazepam (0.5 mg/kg). Monkeys that relapsed, characterized by trypanosome recrudescence in the blood or CSF, were rescue-treated with melarsoprol. Melarsoprol (Mel B), supplied by the World Health Organization as a 3.6% (w/v) solution in propylene glycol, was administered intravenously at 3.6 mg/kg/day for 4 consecutive days.\nPlasma samples were processed for quantification of DB868 and DB829 by high performance liquid chromatography-tandem mass spectrometry (HPLC-MS/MS) as described previously. CSF samples were processed in a manner similar to that of plasma samples.\nClinical and haematological data were analysed using Statview for Windows Version 5.0.1 (1995–1998; SAS Institute Inc., Cary, NC, USA). Repeated measures ANOVA, with Fisher’s PLSD post hoc test, was used to test the effect of trypanosome infection on haematologic parameters in comparison with respective baseline values (α = 0.05). In addition, the effects of IM DB829 and oral DB868 on these haematologic parameters in monkeys with confirmed second stage HAT were tested. Pharmacokinetic outcomes were recovered using traditional non-compartmental methods using Phoenix WinNonlin (version 6.2; Pharsight, Mountain View, CA, USA)."}, "[3]": {"settings": "IM 2.5mg/kg × 5 days, monkeys 546M, 693F"}, "[4]": {"settings": "IM 5 mg/kg × 5 alternate days, monkeys 668M, 676F"}, "[5]": {"settings": "IM 5 mg/kg × 5 days, monkeys 569F, 659M"}, "[6]": {"settings": "IM DB829 consecutive-day dosing"}, "[7]": {"settings": "after 5th IM dose, Group 1 = 5 mg/kg × 5 consecutive days, 5 mg/kg"}, "[8]": {"settings": "after 5th IM dose, Group 3 = 2.5 mg/kg × 5 consecutive days, 2.5 mg/kg"}},
  "note": "Where “and” joins values, the source holds several entries; their conditions need not be identical. Equal values may be shown once.",
  "data": [
    {"smiles": "N=C(N)c1ccc(-c2ccc(-c3ccc(C(=N)N)cn3)o2)nc1", "note": "[DB829, 2,5-bis(5-amidino-2-pyridyl)furan]", "values": [
      {"measurement": "Cured/treated", "setting": "[1]; IM 2.5mg/kg × 5 days", "result": "2/2"},
      {"measurement": "Final efficacy assessment at 300 days post-LDD of DB829", "setting": "[1]; [3]", "result": "Cured"},
      {"measurement": "Provisional efficacy at 100 days post-LDD of DB829", "setting": "[1]; [3]", "result": "Cured"},
      {"measurement": "Trypanosomes at EoT", "setting": "[1]; [3]", "result": "Neg"},
      {"measurement": "Cured/treated", "setting": "[1]; IM 5 mg/kg × 5 alternate days", "result": "2/2"},
      {"measurement": "Final efficacy assessment at 300 days post-LDD of DB829", "setting": "[1]; [4]", "result": "Cured"},
      {"measurement": "Provisional efficacy at 100 days post-LDD of DB829", "setting": "[1]; [4]", "result": "Cured"},
      {"measurement": "Trypanosomes at EoT", "setting": "[1]; [4]", "result": "Neg"},
      {"measurement": "Cured/treated", "setting": "[1]; IM 5 mg/kg × 5 days", "result": "1/1"},
      {"measurement": "Time to initial clearance of trypanosomes from body fluids (blood and CSF)", "setting": "[1]; IM 5 mg/kg × 5 days, alternate-day dosing (28, 30, 30, 32, 34 and 36 DPI), monkeys 668M, 676F", "result": 1, "unit": "days post-LDD"},
      {"measurement": "Time to initial clearance of trypanosomes from body fluids (blood and CSF)", "setting": "[1]; IM 5mg/kg × 5 days, consecutive-day dosing 28–32 DPI, monkeys 569F, 659M", "result": 1, "unit": "days post-LDD"},
      {"measurement": "Final efficacy assessment at 300 days post-LDD of DB829", "setting": "[1]; IM 5 mg/kg × 5 days, monkey 569F (659M withdrawn)", "result": "Cured"},
      {"measurement": "Provisional efficacy at 100 days post-LDD of DB829", "setting": "[1]; [5]", "result": "Cured"},
      {"measurement": "Trypanosomes at EoT", "setting": "[1]; [5]", "result": "Neg"},
      {"measurement": "Time to initial clearance of trypanosomes from body fluids (blood and CSF)", "setting": "[1]; IM, monkeys 546M, 693F, Table 3 prints 5mg/kg × 5 days, consecutive-day dosing 28–32 DPI (text: 2.5 mg/kg/day)", "result": "4 days post-LDD and 7 days post-LDD"},
      {"measurement": "Final efficacy assessment at 300 days post-LDD of DB829, Overall Results (final combined cure rate)", "setting": "[1]; all IM DB829 regimens combined", "result": "cured all monkeys and 5/5"},
      {"measurement": "Provisional efficacy at 100 days post-LDD of DB829, Overall Results", "setting": "[1]; all IM DB829 regimens combined", "result": "6/6"},
      {"measurement": "Trypanosomes at EoT, Overall Results (provisional cure rate)", "setting": "[1]; all IM DB829 regimens combined", "result": "6/6"},
      {"measurement": "geometric mean plasma Cmax of DB829 relative to that after oral DB868 at 20 mg/kg/day", "setting": "[2]; IM DB829 2.5 mg/kg/day", "result": 10, "unit": "times"},
      {"measurement": "AUC, alternate-day relative to consecutive-day dosing regimen", "setting": "[2]; IM DB829 5 mg/kg/day", "result": 5, "unit": "fold"},
      {"measurement": "geometric mean plasma Cmax of DB829 relative to that after oral DB868 at 20 mg/kg/day", "setting": "[2]; IM DB829 5 mg/kg/day, after last of 5 doses", "result": 25, "unit": "fold"},
      {"measurement": "terminal half-life, alternate-day relative to consecutive-day dosing regimen", "setting": "[2]; IM DB829 5 mg/kg/day, 5 mg/kg/day", "result": "4 fold and 5 fold"},
      {"measurement": "median plasma Tmax", "setting": "[2]; IM DB829 2.5 and 5 mg/kg/day consecutive-day dose groups", "result": 0.04, "unit": "days"},
      {"measurement": "geometric mean AUC, 5 mg/kg/day group relative to 2.5 mg/kg/day group", "setting": "[2]; [6]", "result": 2.1, "unit": "fold"},
      {"measurement": "geometric mean Cmax, 5 mg/kg/day group relative to 2.5 mg/kg/day group", "setting": "[2]; [6]", "result": 2.7, "unit": "fold"},
      {"measurement": "AUC0-∞", "setting": "[2]; [7]", "result": "13000 nmol·days/L and 15000 nmol·days/L"},
      {"measurement": "Cl/F (apparent clearance)", "setting": "[2]; [7]", "result": 0.528, "unit": "mL/min/kg"},
      {"measurement": "t½ (terminal half-life)", "setting": "[2]; [7]", "result": 44, "unit": "days"},
      {"measurement": "AUClast", "setting": "[2]; [7]", "result": "12000 nmol·days/L and 13000 nmol·days/L"},
      {"measurement": "t½ (terminal half-life)", "setting": "[2]; after 5th IM dose, Group 2 = 5 mg/kg × 5 alternating days, 5 mg/kg", "result": 180, "unit": "days"},
      {"measurement": "AUC0-∞", "setting": "[2]; [8]", "result": "8300 nmol·days/L and 5300 nmol·days/L"},
      {"measurement": "Cl/F (apparent clearance)", "setting": "[2]; [8]", "result": 0.694, "unit": "mL/min/kg"},
      {"measurement": "t½ (terminal half-life)", "setting": "[2]; [8]", "result": 42, "unit": "days"},
      {"measurement": "AUClast", "setting": "[2]; [8]", "result": "7700 nmol·days/L and 4500 nmol·days/L"},
      {"measurement": "geometric mean AUC0–63 of DB829 relative to single monkey of 3 mg/kg/day group", "setting": "[2]; after oral DB868 10 mg/kg/day", "result": "approximately 3 fold"},
      {"measurement": "geometric mean AUC0–63 of DB829 relative to single monkey of 3 mg/kg/day group", "setting": "[2]; after oral DB868 20 mg/kg/day", "result": "~4", "unit": "fold"},
      {"measurement": "CL/F", "setting": "[2]; monkey, in vivo, im, 2.5 mg/kg, after 5th IM dose, Group 3 = 2.5 mg/kg × 5 consecutive days, read-out: Cl/F (apparent clearance) (converted)", "result": 0.465, "unit": "mL/min/kg"}
    ]}
  ]
}
